The nature of one data set: Solubility Protocol. Format: physicochemical. The note with it: aqueous buffer, thermodynamic from solid; pH 7.4, 0.1 M sodium phosphate buffer. The protocol:
About 5 mg of a compound was mixed with 500 μL of pH 7.4, 0.1 M sodium phosphate buffer. The mixture was adjusted to the original pH of 7.4 and then mixed overnight or longer via rotary mixing. The sample was checked for pH and then filtered through a 0.45 μm filter. If the pH drifted away, the sample was adjusted to its original pH and mixed for at least 15 minutes before filtration. The filtrate was analyzed using HPLC.

A further data set is described as follows: Stability Protocol. Format: physicochemical. The note with it: pH 7.4 sodium phosphate buffer, preliminary shelf life (T90) estimated from stressed samples. How it is done:
About 3 mg of a compound was dissolved in 3 mL of acetonitrile/water mixture (50/50). 100 μL of the stock solution was added to 20 mL each of 0.025 M pH 5.0 sodium acetate buffer (A5.0), 0.025 M pH 5.0 citrate buffer (C5.0) and 0.025 M pH 7.4 sodium phosphate buffer (P7.4). A two mL aliquot of each solution was kept in a glass vial equipped a cap lined with Teflon. Two vials containing the solution were stored at 4° C. or −20° C. as control. Other aliquots were stressed at RT, 45° C. or 75° C. for specified time check points, e.g. 1 day, 1 w, 2 w, 4 w, 8 w,12 w. The stressed samples in duplicate were assayed against the control using HPLC. The results were reported in % degradation. Preliminary shelf life (T90) was estimated assuming the rate of chemical degradation is double when the temperature is up 10° C.

The next data set addresses T1, PDE4B (Homo sapiens, UniProt Q07343).
T1 construct: hex-histidine (His6) (N); made in house
As to the kind of experiment: PDE/AK Biological Activity Assay (coupled PDE/adenylate kinase bioluminescent assay). Format: biochemical. As to conditions: catalytic domain of PDE4B, read-out: PDE4 Enzyme IC50. From the text:
Phosphodiesterases regulate the activity of the second messenger cyclic adenosine monophosphate (cAMP) by hydrolyzing cAMP to adenosine monophosphate (AMP). We developed a coupled PDE/AK bioluminescent high-throughput assay to measure the activity of phosphodiesterases. In the PDE/AK assay, the AMP produced from the hydrolysis of cAMP by phosphodiesterase is converted to adenosine diphosphate (ADP) by the phosphotransferase activity of adenylate kinase (also known as ADK or myokinase). Adenylate kinase will catalyze the conversion of 1 mole of AMP and 1 mole of ATP into 2 moles of ADP. Thus the conversion of AMP to ADP will result in the subsequent loss of ATP. The decrease in ATP concentration can be monitored as light output using luciferase in a reaction that requires ATP to produce light. The PDE/AK assay uses luciferase, which catalyzes the production of light from ATP present in the reaction mix. The amount of emitted light is inversely proportional to the level of AMP present in the reaction. Test compounds are incubated with the phosphodiesterases and phosphodiesterase inhibitors will decrease the rate of cAMP hydrolysis and decrease the subsequent production of AMP. Thus phosphodiesterase inhibitors will decrease the conversion of ATP to ADP and result in the greatest emission of light.
Compounds may be screened for functional potency in in vitro biochemical assays for their ability to inhibit the activity of phosphodiesterase (PDE) enzymes. A coupled PDE/AK assay was utilized to measure the inhibitory activity of compounds on PDE isoforms. The catalytic domain of PDE4B was fused to an amino-terminus hex-histidine affinity tag and purified. PDE4B enzyme was incubated with compounds for 10 minutes. Cyclic AMP substrate, ATP and adenylate kinase were then added to the PDE enzyme mix and incubated for 45 minutes at room temperature. A commercial ATP detection assay, Perkin Elmer's easyLite ATP detection reagent, was then added to measure the relative amount of ATP present in the reaction. After 10 minute incubation, the luminescent signal was quantitated with either the Perkin Elmer Viewlux or Molecular Devices Acquest or Analyst. Roflumilast and Rolipram are the positive controls used in the assay.

Broadly, the solubility is how much of the substance goes into solution per volume. As a reminder, the IC50 is the concentration that gives 50% inhibition.

T1 sequence (Q07343 330-659 limits assumed, species assumed): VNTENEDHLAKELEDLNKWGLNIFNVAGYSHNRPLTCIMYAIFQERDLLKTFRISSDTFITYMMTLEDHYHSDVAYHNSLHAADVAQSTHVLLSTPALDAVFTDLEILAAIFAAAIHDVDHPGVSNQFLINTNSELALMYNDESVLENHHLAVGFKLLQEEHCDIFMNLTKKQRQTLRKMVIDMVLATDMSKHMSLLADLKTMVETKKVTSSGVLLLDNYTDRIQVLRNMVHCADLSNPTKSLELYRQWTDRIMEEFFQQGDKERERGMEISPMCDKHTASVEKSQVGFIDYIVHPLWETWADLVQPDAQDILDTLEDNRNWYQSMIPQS

In the case of `COc1ccc2c(Nc3c(Cl)cncc3Cl)cc(=O)[nH]c2c1OCCCCCCN1CCOCC1` [Example 16, 4-(3,5-Dichloropyridin-4-ylamino)-7-methoxy-8-(6-morpholinohexyloxy)quinolin-2(1H)-one], in “Solubility Protocol”, the solubility is ≥ 1000 µg/mL. Also, the “Stability, pH 7.4” value in “Stability Protocol” is “+ (+ indicates ≧1 Year)”. Moreover, the IC50 on PDE4B is < 1 µM.
`COc1ccc2c(Nc3c(Cl)cncc3Cl)cc(=O)[nH]c2c1OCCCCCCCCN1CCN(C)CC1` [Example 21, 4-(3,5-dichloropyridin-4-ylamino)-7-methoxy-8-(8-(4-methylpiperazin-1-yl)octyloxy)quinolin-2(1H)-one]: the solubility in the data set “Solubility Protocol” is ≥ 1000 µg/mL. Also, in the data set “Stability Protocol”, the “Stability, pH 7.4” value is on record as “+ (+ indicates ≧1 Year)”. Also, the IC50 on PDE4B is < 1 µM.
On to `COc1ccc2c(Nc3c(Cl)cncc3Cl)cc(=O)[nH]c2c1OCCCCCCN1CCN(C)CC1` [Example 15, 4-(3,5-Dichloropyridin-4-ylamino)-7-methoxy-8-(6-(4-methylpiperazin-1-yl)hexyloxy)quinolin-2(1H)-one], for which the solubility in “Solubility Protocol” was ≥ 1000 µg/mL. Also, in “Stability Protocol”, the “Stability, pH 7.4” value is given as “+ (+ indicates ≧1 Year)”. For the same compound, at PDE4B, the IC50 was < 1 µM.
For `COc1ccc2c(Nc3c(Cl)cncc3Cl)cc(=O)[nH]c2c1OCCCCCCN1CCNCC1` [Example 22, 4-(3,5-Dichloropyridin-4-ylamino)-7-methoxy-8-(6-(piperazin-1-yl)hexyloxy)quinolin-2(1H)-one] the same measures were ≥ 1000 µg/mL, “+ (+ indicates ≧1 Year)” and < 1 µM.
On to `COc1ccc2c(Nc3c(Cl)cncc3Cl)cc(=O)[nH]c2c1OCCCN1CCOCC1` [Example 19, 4-(3,5-dichloropyridin-4-ylamino)-7-methoxy-8-(3-morpholinopropoxy)quinolin-2(1H)-one], for which the solubility in “Solubility Protocol” was ≥ 1000 µg/mL. For the same compound, the “Stability, pH 7.4” value in “Stability Protocol” is recorded as “+ (+ indicates ≧1 Year)”. For the same compound, the concentration for half-maximal inhibition (IC50) at PDE4B was < 1 µM.
As to `COc1ccc2c(Nc3c(Cl)cncc3Cl)cc(=O)[nH]c2c1OCC(C)C` [Example 61, 4-(3,5-dichloropyridin-4-ylamino)-8-isobutoxy-7-methoxyquinolin-2(1H)-one], the “Stability, pH 7.4” value in “Stability Protocol” is “+ (+ indicates ≧1 Year)”. Also, the concentration for half-maximal inhibition (IC50) at PDE4B is < 1 µM.
`COc1ccc2c(Nc3c(Cl)cncc3Cl)cc(=O)[nH]c2c1OCCCCC(=O)O` [Example 52, 5-(4-(3,5-dichloropyridin-4-ylamino)-7-methoxy-2-oxo-1,2-dihydroquinolin-8-yloxy)pentanoic acid]: the solubility in the data set “Solubility Protocol” was ≥ 1000 µg/mL. Moreover, the “Stability, pH 7.4” value in the data set “Stability Protocol” is listed as “+ (+ indicates ≧1 Year)”. Moreover, the IC50 at PDE4B is < 1 µM.
`COc1ccc2c(Nc3c(Cl)cncc3Cl)cc(=O)[nH]c2c1OCCCCCN(C)C` [Example 14, 4-(3,5-Dichloropyridin-4-ylamino)-8-(5-(dimethylamino)pentyloxy)-7-methoxyquinolin-2(1H)-one]: the solubility in the data set “Solubility Protocol” was ≥ 1000 µg/mL. Also, the “Stability, pH 7.4” value in “Stability Protocol” was “+ (+ indicates ≧1 Year)”.
As for `COc1ccc2c(Nc3c(Cl)cncc3Cl)cc(=O)[nH]c2c1OCCCCCc1nn[nH]n1` [Example 69, 8-(5-(2H-tetrazol-5-yl)pentyloxy)-4-(3,5-dichloropyridin-4-ylamino)-7-methoxyquinolin-2(1H)-one], the “Stability, pH 7.4” value in the data set “Stability Protocol” is listed as “+ (+ indicates ≧1 Year)”. Also, on PDE4B, the half-inhibitory concentration (IC50) is < 1 µM.
Take `COc1ccc2c(Nc3c(Cl)cncc3Cl)cc(=O)[nH]c2c1OCCCN1CCN(C)CC1` [Example 18, 4-(3,5-dichloropyridin-4-ylamino)-7-methoxy-8-(3-(4-methylpiperazin-1-yl)propoxy)quinolin-2(1H)-one]: the solubility in “Solubility Protocol” is ≥ 1000 µg/mL. The “Stability, pH 7.4” value in “Stability Protocol” was “+ (+ indicates ≧1 Year)”. Further, the IC50 on PDE4B was < 1 µM.
Turning to `COc1ccc2c(Nc3c(Cl)cncc3Cl)cc(=O)[nH]c2c1OCCCCC(N)=O` [Example 57, 5-(4-(3,5-dichloropyridin-4-ylamino)-7-methoxy-2-oxo-1,2-dihydroquinolin-8-yloxy)pentanamide], the solubility in the data set “Solubility Protocol” was ≥ 1000 µg/mL. Moreover, in “Stability Protocol”, the “Stability, pH 7.4” value is “+ (+ indicates ≧1 Year)”. Also, the half-maximal inhibitory concentration (IC50) on PDE4B was < 1 µM.
As to `COc1ccc2c(Nc3c(Cl)cncc3Cl)cc(=O)[nH]c2c1OCCCC(N)=O` [Example 56, 4-(4-(3,5-dichloropyridin-4-ylamino)-7-methoxy-2-oxo-1,2-dihydroquinolin-8-yloxy)butanamide], the solubility in the data set “Solubility Protocol” was ≥ 1000 µg/mL. Moreover, the “Stability, pH 7.4” value in the data set “Stability Protocol” is “+ (+ indicates ≧1 Year)”. Further, on PDE4B, the IC50 is < 1 µM.
On to `COc1ccc2c(Nc3c(C)cncc3C)cc(=O)[nH]c2c1OCCCCn1ccnc1` [Example 78, 8-(4-(1H-imidazol-1-yl)butoxy)-4-(3,5-dimethylpyridin-4-ylamino)-7-methoxyquinolin-2(1H)-one], for which the “Stability, pH 7.4” value in “Stability Protocol” is listed as “+ (+ indicates ≧1 Year)”. The IC50 on PDE4B is < 1 µM.
In the case of `COc1ccc2c(Nc3c(C)cncc3C)cc(=O)[nH]c2c1OCCCCCn1ccnc1` [Example 79, 8-(5-(1H-imidazol-1-yl)pentyloxy)-4-(3,5-dimethylpyridin-4-ylamino)-7-methoxyquinolin-2(1H)-one], the “Stability, pH 7.4” value in the data set “Stability Protocol” is “+ (+ indicates ≧1 Year)”. For the same compound, the half-inhibitory concentration (IC50) at PDE4B is < 1 µM.
With `COc1ccc2c(Nc3c(Cl)cncc3Cl)cc(=O)[nH]c2c1OCCCCCCCC(=O)O` [Example 54, 8-(4-(3,5-dichloropyridin-4-ylamino)-7-methoxy-2-oxo-1,2-dihydroquinolin-8-yloxy)octanoic acid], the solubility in the data set “Solubility Protocol” was ≥ 1000 µg/mL. Besides, in the data set “Stability Protocol”, the “Stability, pH 7.4” value is “+ (+ indicates ≧1 Year)”. Moreover, the IC50 on PDE4B is < 1 µM.
Turning to `COc1ccc2c(Nc3c(Cl)cncc3Cl)cc(=O)[nH]c2c1OCCCCCC(=O)O` [Example 11, 6-(4-(3,5-Dichloropyridin-4-ylamino)-7-methoxy-2-oxo-1,2-dihydroquinolin-8-yloxy)hexanoic acid], the solubility in the data set “Solubility Protocol” is ≥ 1000 µg/mL. For the same compound, the “Stability, pH 7.4” value in the data set “Stability Protocol” is “+ (+ indicates ≧1 Year)”.
Take `COc1ccc2c(Nc3c(C)cncc3C)cc(=O)[nH]c2c1OCCCCCCN1CCOCC1` [Example 35, 4-(3,5-Dimethylpyridin-4-ylamino)-7-methoxy-8-(6-morpholinohexyloxy)quinolin-2(1H)-one]: the solubility in the data set “Solubility Protocol” was ≥ 1000 µg/mL. The “Stability, pH 7.4” value in the data set “Stability Protocol” is listed as “+ (+ indicates ≧1 Year)”. For the same compound, the IC50 at PDE4B was < 1 µM.
Turning to `COc1ccc2c(Nc3c(C)cncc3C)cc(=O)[nH]c2c1OCCCCCCN(C)C` [Example 38, 8-(6-(Dimethylamino)hexyloxy)-4-(3,5-dimethylpyridin-4-ylamino)-7-methoxyquinolin-2(1H)-one], the solubility in the data set “Solubility Protocol” is ≥ 1000 µg/mL. The “Stability, pH 7.4” value in “Stability Protocol” was “+ (+ indicates ≧1 Year)”. Also, on PDE4B, the 50% inhibitory concentration (IC50) is < 1 µM.
In the case of `COc1ccc2c(Nc3c(Cl)cncc3Cl)cc(=O)[nH]c2c1OCCCCCC(N)=O` [Example 58, 6-(4-(3,5-dichloropyridin-4-ylamino)-7-methoxy-2-oxo-1,2-dihydroquinolin-8-yloxy)hexanamide], in the data set “Solubility Protocol”, the solubility was ≥ 1000 µg/mL. Also, the “Stability, pH 7.4” value in the data set “Stability Protocol” is “+ (+ indicates ≧1 Year)”. Also, on PDE4B, the IC50 was < 1 µM.
Take `COc1ccc2c(Nc3c(Cl)cncc3Cl)cc(=O)[nH]c2c1OCCCCCCCN1CCN(C)CC1` [Example 20, 4-(3,5-dichloropyridin-4-ylamino)-7-methoxy-8-(7-(4-methylpiperazin-1-yl)heptyloxy)quinolin-2(1H)-one]: the solubility in the data set “Solubility Protocol” was ≥ 1000 µg/mL. The “Stability, pH 7.4” value in the data set “Stability Protocol” is given as “+ (+ indicates ≧1 Year)”. For the same compound, at PDE4B, the half-maximal inhibitory concentration (IC50) is < 1 µM.
The like results for `COc1ccc2c(Nc3c(Cl)cncc3Cl)cc(=O)[nH]c2c1OCCCCCCC(=O)O` [Example 53, 7-(4-(3,5-dichloropyridin-4-ylamino)-7-methoxy-2-oxo-1,2-dihydroquinolin-8-yloxy)heptanoic acid] were, in that order, ≥ 1000 µg/mL, “+ (+ indicates ≧1 Year)” and < 1 µM.

The record behind these values is patent US8138205B2, “Heteroarylalkoxy-substituted quinolone inhibitors of PDE4” (Kalypsys, Inc., priority 2006, dated 2012).
